Test results: ChEMBL document CHEMBL5291721, “A preclinical secondary pharmacology resource illuminates target-adverse drug reaction associations of marketed drugs” (Nat Commun, 2023)

Tests used:
Bile acid receptor [1] = target: T1, Bile acid receptor (Homo sapiens, UniProt Q96RI1); type: functional
T1 sequence (Q96RI1 whole entry): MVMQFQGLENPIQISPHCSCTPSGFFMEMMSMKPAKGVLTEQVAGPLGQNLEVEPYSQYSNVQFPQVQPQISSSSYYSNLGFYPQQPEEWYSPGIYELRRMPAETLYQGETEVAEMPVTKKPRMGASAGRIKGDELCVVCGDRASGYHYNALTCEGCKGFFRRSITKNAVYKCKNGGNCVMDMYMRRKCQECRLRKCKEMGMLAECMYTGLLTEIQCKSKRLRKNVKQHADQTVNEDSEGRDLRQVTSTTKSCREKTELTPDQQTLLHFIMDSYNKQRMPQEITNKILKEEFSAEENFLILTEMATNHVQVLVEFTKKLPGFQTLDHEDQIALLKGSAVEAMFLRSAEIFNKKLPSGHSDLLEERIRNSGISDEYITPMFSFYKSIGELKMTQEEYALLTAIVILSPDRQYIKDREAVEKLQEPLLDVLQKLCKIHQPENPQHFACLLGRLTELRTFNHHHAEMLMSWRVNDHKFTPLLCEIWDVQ

[2] = target: T2, Oxysterols receptor LXR-beta (Homo sapiens, UniProt P55055); type: functional
T2 sequence (P55055 whole entry): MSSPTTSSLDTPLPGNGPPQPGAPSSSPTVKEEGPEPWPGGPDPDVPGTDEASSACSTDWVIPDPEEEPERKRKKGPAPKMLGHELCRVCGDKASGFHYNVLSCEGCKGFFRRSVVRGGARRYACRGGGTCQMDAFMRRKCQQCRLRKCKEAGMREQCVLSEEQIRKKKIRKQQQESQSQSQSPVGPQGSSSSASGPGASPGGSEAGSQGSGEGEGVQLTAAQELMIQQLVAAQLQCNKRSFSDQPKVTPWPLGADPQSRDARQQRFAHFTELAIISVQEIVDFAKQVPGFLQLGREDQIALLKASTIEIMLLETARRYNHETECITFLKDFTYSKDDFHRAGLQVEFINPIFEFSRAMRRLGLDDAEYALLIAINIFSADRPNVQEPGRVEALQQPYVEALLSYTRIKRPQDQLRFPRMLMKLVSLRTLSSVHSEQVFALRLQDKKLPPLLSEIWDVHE

[3] = target: T2, Oxysterols receptor LXR-beta; type: functional; remark: listed apart in the source
Bile acid receptor [4] = target: T1, Bile acid receptor; type: functional; remark: listed apart in the source
Bile acid receptor [5] = target: T1, Bile acid receptor; type: functional; remark: listed apart in the source
Bile acid receptor [6] = target: T1, Bile acid receptor; type: functional; remark: listed apart in the source
[7] = target: T3, Retinoic acid receptor gamma (Homo sapiens, UniProt P13631); type: functional, cell-based
T3 sequence (P13631 whole entry): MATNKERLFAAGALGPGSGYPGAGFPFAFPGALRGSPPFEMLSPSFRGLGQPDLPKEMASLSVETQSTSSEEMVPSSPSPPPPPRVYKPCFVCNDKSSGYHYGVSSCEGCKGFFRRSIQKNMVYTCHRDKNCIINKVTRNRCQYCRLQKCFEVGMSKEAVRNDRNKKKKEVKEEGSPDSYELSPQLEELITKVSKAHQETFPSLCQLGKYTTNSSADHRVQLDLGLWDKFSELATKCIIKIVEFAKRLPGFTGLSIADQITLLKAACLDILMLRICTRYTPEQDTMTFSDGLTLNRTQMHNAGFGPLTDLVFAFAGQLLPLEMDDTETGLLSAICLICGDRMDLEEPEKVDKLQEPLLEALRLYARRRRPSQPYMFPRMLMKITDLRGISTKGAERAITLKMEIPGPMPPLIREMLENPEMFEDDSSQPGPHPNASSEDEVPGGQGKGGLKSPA

[8] = target: Rod cGMP-specific 3',5'-cyclic phosphodiesterase subunit alpha (Homo sapiens, UniProt P16499); type: functional
[9] = target: T4, Muscarinic acetylcholine receptor M4 (Homo sapiens, UniProt P08173)
T4 sequence (P08173 whole entry): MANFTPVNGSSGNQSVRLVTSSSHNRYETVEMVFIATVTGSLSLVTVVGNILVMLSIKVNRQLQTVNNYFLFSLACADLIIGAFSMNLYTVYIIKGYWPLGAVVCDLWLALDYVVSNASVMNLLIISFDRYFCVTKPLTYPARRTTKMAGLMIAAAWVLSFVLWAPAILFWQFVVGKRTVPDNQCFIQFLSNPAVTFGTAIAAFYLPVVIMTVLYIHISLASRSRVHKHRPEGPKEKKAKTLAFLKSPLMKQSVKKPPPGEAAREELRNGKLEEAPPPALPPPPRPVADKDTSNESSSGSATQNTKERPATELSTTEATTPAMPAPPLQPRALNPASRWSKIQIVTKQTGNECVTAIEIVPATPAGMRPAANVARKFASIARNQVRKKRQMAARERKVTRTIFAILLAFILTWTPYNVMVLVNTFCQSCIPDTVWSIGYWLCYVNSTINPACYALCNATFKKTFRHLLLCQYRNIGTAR

D(1B) dopamine receptor = D(1B) dopamine receptor (Homo sapiens, UniProt P21918)
[10] = target: T5, Type-2 angiotensin II receptor (Homo sapiens, UniProt P50052); type: functional
T5 sequence (P50052 whole entry): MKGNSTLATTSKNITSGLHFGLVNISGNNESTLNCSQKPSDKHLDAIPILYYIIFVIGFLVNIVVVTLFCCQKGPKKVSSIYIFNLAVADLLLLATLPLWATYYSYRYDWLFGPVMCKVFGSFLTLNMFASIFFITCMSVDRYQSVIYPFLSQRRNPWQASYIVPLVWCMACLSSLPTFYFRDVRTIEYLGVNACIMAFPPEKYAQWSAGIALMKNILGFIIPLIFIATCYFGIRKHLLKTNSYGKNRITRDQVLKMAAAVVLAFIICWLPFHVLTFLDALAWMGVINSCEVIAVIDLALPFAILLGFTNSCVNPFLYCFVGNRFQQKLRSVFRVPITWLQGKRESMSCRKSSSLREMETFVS
Further: assay procedure not described here.

Rod cGMP-specific 3',5'-cyclic phosphodiesterase subunit alpha, sequence (P16499 whole entry): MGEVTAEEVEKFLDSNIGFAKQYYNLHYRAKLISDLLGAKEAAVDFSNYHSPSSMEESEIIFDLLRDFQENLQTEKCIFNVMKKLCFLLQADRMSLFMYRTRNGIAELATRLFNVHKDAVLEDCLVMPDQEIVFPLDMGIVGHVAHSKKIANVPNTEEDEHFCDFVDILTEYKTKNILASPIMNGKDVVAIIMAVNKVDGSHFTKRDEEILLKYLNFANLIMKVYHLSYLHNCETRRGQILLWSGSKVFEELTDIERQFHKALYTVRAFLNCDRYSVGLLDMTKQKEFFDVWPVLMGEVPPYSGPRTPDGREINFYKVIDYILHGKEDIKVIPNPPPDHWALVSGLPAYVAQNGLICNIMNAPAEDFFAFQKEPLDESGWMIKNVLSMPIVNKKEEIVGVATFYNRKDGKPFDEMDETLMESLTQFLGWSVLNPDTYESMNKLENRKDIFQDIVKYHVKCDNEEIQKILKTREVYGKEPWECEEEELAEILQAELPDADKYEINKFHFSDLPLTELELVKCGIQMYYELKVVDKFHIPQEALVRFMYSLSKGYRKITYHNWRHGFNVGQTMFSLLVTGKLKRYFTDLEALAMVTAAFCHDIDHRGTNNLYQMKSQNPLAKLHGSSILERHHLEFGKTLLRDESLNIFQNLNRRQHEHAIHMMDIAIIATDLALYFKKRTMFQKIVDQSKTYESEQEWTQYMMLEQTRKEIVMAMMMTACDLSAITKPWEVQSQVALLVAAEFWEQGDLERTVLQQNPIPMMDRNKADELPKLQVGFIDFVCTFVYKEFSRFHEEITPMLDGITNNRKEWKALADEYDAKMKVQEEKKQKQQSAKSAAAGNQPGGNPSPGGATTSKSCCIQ
D(1B) dopamine receptor, sequence (P21918 whole entry): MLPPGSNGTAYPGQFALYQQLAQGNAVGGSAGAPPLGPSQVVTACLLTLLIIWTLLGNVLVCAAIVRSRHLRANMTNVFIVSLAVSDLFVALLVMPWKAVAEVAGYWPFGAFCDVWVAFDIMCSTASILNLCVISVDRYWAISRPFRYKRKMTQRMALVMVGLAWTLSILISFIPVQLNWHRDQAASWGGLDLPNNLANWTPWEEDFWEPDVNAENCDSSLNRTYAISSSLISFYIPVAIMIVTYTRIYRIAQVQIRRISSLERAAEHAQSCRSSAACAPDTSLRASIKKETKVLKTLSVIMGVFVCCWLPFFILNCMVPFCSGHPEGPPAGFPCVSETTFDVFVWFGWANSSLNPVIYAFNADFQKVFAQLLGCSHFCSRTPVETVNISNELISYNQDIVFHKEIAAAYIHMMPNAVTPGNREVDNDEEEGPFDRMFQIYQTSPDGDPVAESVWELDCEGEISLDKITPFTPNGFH

SMILES: CC(C)/N=c1\cc2n(-c3ccc(Cl)cc3)c3ccccc3nc-2cc1Nc1ccc(Cl)cc1 [CLOFAZIMINE]
- AC50 (Bile acid receptor [1]): > 30 µM
- AC50 [2]: > 30 µM
- AC50 [3]: > 30 µM
- AC50 (Bile acid receptor [4]): > 30 µM
- AC50 (Bile acid receptor [5]): 16 µM
- AC50 (Bile acid receptor [6]): > 30 µM
- AC50 [7]: > 30 µM

SMILES: CCOC(=O)[C@H](CCc1ccccc1)N[C@@H](C)C(=O)N1Cc2ccccc2C[C@H]1C(=O)O
- AC50 [8]: > 10 µM
- AC50 [9]: > 10 µM
- AC50 (D(1B) dopamine receptor): > 10 µM

SMILES: C[C@H](CS)C(=O)N1CCC[C@H]1C(=O)O [CAPTOPRIL]
- AC50 [10]: > 100 µM
